For twelve compounds, inhibition of growth and growth inhibition (GI) results are on record in ChEMBL document CHEMBL3046882, “Synthesis and antibacterial activity against ralstonia solanacearum for novel hydrazone derivatives containing a pyridine moiety” (2012).

Assay [1] deals with Ralstonia solanacearum. Kind of assay: Antibacterial activity against Ralstonia solanacearum assessed as growth inhibition at […] after 48 hrs by turbidimeter test. Format: functional. Further details: dose or concentration left out as unconfirmed. Conditions: for inhibition of growth: read-out: GI.
In assay [2] the test system is Ralstonia solanacearum. The assay is described as follows: Antibacterial activity against Ralstonia solanacearum assessed as growth inhibition at […] after 48 hrs by turbidimeter test. Format: functional. Also noted: dose or concentration left out as unconfirmed. As to conditions: for inhibition of growth: read-out: GI.

As to `Cc1cc(Cl)cc(C(=O)N/N=C\c2c(Cl)cccc2Cl)c1NC(=O)c1cccnc1Cl`, the results for the inhibition of growth with Ralstonia solanacearum [1] and with Ralstonia solanacearum [2] were 18.2% and 15.2%, respectively.

Turning to `COc1ccc(OC)c(/C=N\NC(=O)c2cc(Cl)cc(C)c2NC(=O)c2cccnc2Cl)c1`, the inhibition of growth came out at 25.2% in the assay with Ralstonia solanacearum [1] and 1.9% with Ralstonia solanacearum [2].

For the compound `Cc1cc(Cl)cc(C(=O)N/N=C\c2cccc(C(F)(F)F)c2)c1NC(=O)c1cccnc1Cl`, the inhibition of growth came to 80.9% with Ralstonia solanacearum [1] and 33.3% with Ralstonia solanacearum [2].

In the case of `CC/C=N\NC(=O)c1cc(Cl)cc(C)c1NC(=O)c1cccnc1Cl`, the values for the inhibition of growth with Ralstonia solanacearum [1] and with Ralstonia solanacearum [2] were 5% and 0%, respectively.

As to `Cc1cc(Cl)cc(C(=O)N/N=C\N(C)C)c1NC(=O)c1cccnc1Cl`, the inhibition of growth with Ralstonia solanacearum [1] is 100%; with Ralstonia solanacearum [2], 57.1%.

Turning to `Cc1cc(Cl)cc(C(=O)N/N=C\c2ccc(Cl)c(Cl)c2)c1NC(=O)c1cccnc1Cl`, the inhibition of growth came out at 35% with Ralstonia solanacearum [1] and 12.4% with Ralstonia solanacearum [2].

`COc1cccc(/C=N\NC(=O)c2cc(Cl)cc(C)c2NC(=O)c2cccnc2Cl)c1OC`: the inhibition of growth in the assay with Ralstonia solanacearum [1] stood at 40.3%; with Ralstonia solanacearum [2], 0%.

`COc1ccc(/C=N\NC(=O)c2cc(Cl)cc(C)c2NC(=O)c2cccnc2Cl)c(OC)c1`: the inhibition of growth in the assay with Ralstonia solanacearum [1] is 36.1%; with Ralstonia solanacearum [2], 0%.

With `Cc1cc(Cl)cc(C(=O)N/N=C\c2ccc(C(C)(C)C)cc2)c1NC(=O)c1cccnc1Cl`, the inhibition of growth in the assay on Ralstonia solanacearum [1] is 39%; in the assay with Ralstonia solanacearum [2], 18.2%.

Turning to `Cc1cc(Cl)cc(C(=O)N/N=C\c2ccc(F)cc2)c1NC(=O)c1cccnc1Cl`, the inhibition of growth amounted to 5% in the assay on Ralstonia solanacearum [1] and 1.1% in the assay on Ralstonia solanacearum [2].

On to COPPER HYDROXIDE, for which the growth inhibition (GI) in the assay with Ralstonia solanacearum [1] and in the assay on Ralstonia solanacearum [2] was 100% in each case.

`Cc1cc(Cl)cc(C(=O)N/N=C\c2ccccc2Cl)c1NC(=O)c1cccnc1Cl`: the inhibition of growth with Ralstonia solanacearum [1] was 6%; in the assay on Ralstonia solanacearum [2], 0%.
